The values that follow are results of earlier work, collected in publication PMC7318425 (Bioorganic & medicinal chemistry letters, 2019).

This series relates to off-target kinases. As to conditions: KinomeScan, compared with ibrutinib.

`Nc1ncnc2c1c(-c1ccc(Oc3ccccc3)cc1)nn2C1CCN(CCOCCOCC(=O)Nc2ccc3c(c2)C(=O)N(C2CCC(=O)NC2=O)C3=O)CC1` (stereo not shown) [MT802]: the off-target kinase binding entry is given as “binds fewer off-target kinases than ibrutinib”.
